In the supplement of paper PMC10307832:

How the values were obtained:
Experiment in all cases: relative viability (nuclei count vs DMSO), 5 days (fraction); higher = more cells survive
Dabrafenib + Crizotinib = compound: CC(C)(C)c1nc(-c2cccc(NS(=O)(=O)c3c(F)cccc3F)c2F)c(-c2ccnc(N)n2)s1 [Dabrafenib] + C[C@@H](Oc1cc(-c2cnn(C3CCNCC3)c2)cnc1N)c1c(Cl)ccc(F)c1Cl [Crizotinib] (partner 1 µM)
Method in brief: (§1)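 Cells from lung cancer lines were seeded into 1536-well plates and, one day later, dosed by pin tool. Treatments were either a single drug or a fixed dose of an anchor drug with five library-drug doses (not always all listed) in √10 steps. After 5 days, nuclei were stained in a one-step fixation (final 0.05% Triton X-100, 1% formaldehyde, 1 ug/ml Hoechst) and counted on 4× images, and relative viability is the treated-to-vehicle nuclei ratio, as the median of duplicate plates.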

VX-702 + AZD7762 = compound: NC(=O)c1ccc(N(C(N)=O)c2c(F)cccc2F)nc1-c1ccc(F)cc1F [VX-702] + NC(=O)Nc1cc(-c2cccc(F)c2)sc1C(=O)N[C@H]1CCCNC1 [AZD7762] (partner 0.2 µM)
Method in brief: as §1

VX-702 + Bortezomib = compound: NC(=O)c1ccc(N(C(N)=O)c2c(F)cccc2F)nc1-c1ccc(F)cc1F [VX-702] + CC(C)C[C@H](NC(=O)[C@H](Cc1ccccc1)NC(=O)c1cnccn1)B(O)O [Bortezomib] (partner 0.002 µM)
Method in brief: as §1

Dabrafenib + Bortezomib = compound: CC(C)(C)c1nc(-c2cccc(NS(=O)(=O)c3c(F)cccc3F)c2F)c(-c2ccnc(N)n2)s1 [Dabrafenib] + CC(C)C[C@H](NC(=O)[C@H](Cc1ccccc1)NC(=O)c1cnccn1)B(O)O [Bortezomib] (partner 0.002 µM)
Method in brief: as §1

Cell Line	relative viability (Dabrafenib + Crizotinib; first compound 0.003 µM)	relative viability (Dabrafenib + Crizotinib; first compound 0.009487 µM)	relative viability (Dabrafenib + Crizotinib; first compound 0.03 µM)	relative viability (Dabrafenib + Crizotinib; first compound 0.09487 µM)	relative viability (Dabrafenib + Crizotinib; first compound 0.3 µM)	relative viability (VX-702 + AZD7762; first compound 0.02 µM)	relative viability (VX-702 + AZD7762; first compound 0.2 µM)	relative viability (VX-702 + AZD7762; first compound 0.6325 µM)	relative viability (VX-702 + AZD7762; first compound 2 µM)	relative viability (VX-702 + Bortezomib; first compound 0.02 µM)	relative viability (VX-702 + Bortezomib; first compound 0.2 µM)	relative viability (VX-702 + Bortezomib; first compound 0.6325 µM)	relative viability (VX-702 + Bortezomib; first compound 2 µM)	relative viability (Dabrafenib + Bortezomib; first compound 0.003 µM)	relative viability (Dabrafenib + Bortezomib; first compound 0.009487 µM)	relative viability (Dabrafenib + Bortezomib; first compound 0.03 µM)	relative viability (Dabrafenib + Bortezomib; first compound 0.3 µM)	relative viability (Dabrafenib + Bortezomib; first compound 0.09487 µM)
HCC-827	0.873	0.945	0.864	0.696	0.942	0.2	0.226	0.215	0.137	0.966	1.03	0.997	0.541	0.778	1.03	1.06	0.996	–
HOP-62	–	0.807	1.05	0.913	0.805	0.95	0.409	1.08	0.465	0.67	0.566	0.696	0.653	–	0.809	0.861	0.706	0.235
IA-LM	1.01	0.756	0.702	0.628	0.46	–	–	–	–	0.787	0.796	0.872	0.919	0.84	0.646	0.492	0.222	0.471
LC-2-ad	0.42	0.398	0.389	0.426	0.447	0.837	0.854	0.892	0.973	1.08	1.08	1.12	1.22	1.04	1.03	0.969	1.09	0.918
LCLC-97TM1	–	0.325	0.406	–	0.287	0.356	0.175	0.301	0.301	0.526	0.592	0.667	0.709	–	0.643	0.782	0.469	0.162
LCLC-103H	1	1.13	0.935	1.17	1.06	0.76	0.816	0.825	0.873	1.17	0.949	1.05	1.11	1.06	1.14	0.995	1.01	1.09
LK-2	0.211	0.223	–	0.254	0.197	0.312	0.234	0.343	0.292	–	–	–	–	–	–	–	–	–
NCI-H358	–	0.662	0.553	0.631	0.476	0.542	0.461	0.45	0.572	–	–	–	–	–	–	–	–	–
NCI-H520	0.756	0.752	0.732	0.582	0.664	–	–	–	–	0.4	0.663	0.479	0.677	0.584	0.59	0.476	0.731	0.544
NCI-H522	–	–	–	–	–	0.92	0.833	0.689	0.931	–	–	–	–	–	–	–	–	–
NCI-H661	1.07	0.958	–	0.96	1.04	–	–	–	–	0.731	0.731	1.11	1.21	0.647	0.868	0.437	0.789	0.719
NCI-H1299	1.01	0.91	0.961	0.882	0.806	–	–	–	–	1.09	1.03	1.12	1.09	0.962	0.97	1	1	0.993
